Reference: patent US7547690B2, “Compounds for the treatment of Hepatitis C” (Bristol-Myers Squibb Company, priority 2007, dated 2009)
Like-named read-outs stand apart in the source and are kept apart here.

How the values were obtained:
[1] = molecular target: T1, HCV NS5B (Hepatitis C virus genotype 1b, UniProt Q9WMX2); assay: HCV NS5B RdRp enzyme assay (standard / modified); type: biochemical; conditions: HCV RdRp genotype 1b, standard or modified assay not specified
T1 construct: The protein was expressed with an 18 amino acid C-terminal truncation to enhance the solubility; made in house; host or cells: E. coli BL21(DE3)
T1 sequence (Q9WMX2 2420-2992): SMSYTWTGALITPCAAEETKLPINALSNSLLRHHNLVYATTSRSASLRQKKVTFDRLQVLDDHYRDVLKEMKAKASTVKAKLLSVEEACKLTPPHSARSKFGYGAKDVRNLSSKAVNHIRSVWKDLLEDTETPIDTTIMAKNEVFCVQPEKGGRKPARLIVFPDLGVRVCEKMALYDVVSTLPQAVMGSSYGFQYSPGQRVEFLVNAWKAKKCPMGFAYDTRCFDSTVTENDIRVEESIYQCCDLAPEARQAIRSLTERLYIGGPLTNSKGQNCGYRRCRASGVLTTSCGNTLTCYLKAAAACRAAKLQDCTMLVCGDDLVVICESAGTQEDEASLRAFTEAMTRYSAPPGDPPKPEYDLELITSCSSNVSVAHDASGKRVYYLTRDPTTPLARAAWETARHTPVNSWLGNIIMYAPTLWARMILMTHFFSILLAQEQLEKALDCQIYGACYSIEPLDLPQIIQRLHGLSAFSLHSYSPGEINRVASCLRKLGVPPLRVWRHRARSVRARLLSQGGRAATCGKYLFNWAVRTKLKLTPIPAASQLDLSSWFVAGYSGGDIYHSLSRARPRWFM
How it was run: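 Genotype 1b NS5B, 18-aa C-terminal truncation, E. coli-expressed; polyA template with biotin-oligo-dT12 primer, 3H-UTP (0.29 μM UTP), pH 7.5 Hepes, 2% DMSO, 30 °C, SPA read. Standard: 28 nM enzyme, 6 nM template, 180 nM primer, 60 min. Modified: 1.75 nM enzyme, 0.36 nM template, 20 nM bead-precaptured primer, 4 h; IC50 from seven concentrations, four-parameter fit.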

[2] = tested on: HCV replicon cells; assay: HCV replicon FRET / luciferase assay; type: cell-based; conditions: 50% reduction in FRET or luciferase activity in HCV replicon cells
How it was run: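 HCV replicon cells (with or without Renilla luciferase reporter) incubated with titrated compounds at 37° C; cytotoxicity read by Alamar blue. Replicon activity then read by NS3 cleavage of EDANS/DABCYL FRET peptide (20 μM final, 340/490 nm kinetic) or by luciferase; background from highest control-inhibitor wells subtracted; EC50 = concentration giving 50% signal reduction.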

[3] = Hepatitis C virus, read-out: EC50

Row | Structure (SMILES) | IC50 ([1]; read-out: IC50) [nM] | EC50 [2, 3] [nM] | IC50 [1] [nM] | EC50 [2] [nM]
1 | COc1ccc2c(c1)C1CC1(C(=O)N1CCN3CCC1CC3)Cn1c-2c(C2CCCCC2)c2ccc(C(=O)NS(=O)(=O)C3CC3)cc21 (stereo not drawn) [drawing 50] | 2.4 to 500 | 2.4 to 500 | – | –
2 | COc1ccc2c(c1)C1CC1(C(=O)N1CC3CN(Cc4ccccc4)CC(C1)N3Cc1ccccc1)Cn1c-2c(C2CCCCC2)c2ccc(C(=O)NS(=O)(=O)N(C)C)cc21 (stereo not drawn) | 2.4 to 500 | 500 to 5000 | – | –
3 | COc1ccc2c(c1)C1CC1(C(=O)N1C[C@H]3C[C@@H]1CN3C)Cn1c-2c(C2CCCCC2)c2ccc(C(=O)NS(N)(=O)=O)cc21 (stereo partly drawn) | 2.4 to 500 | 2.4 to 500 | – | –
4 | COc1ccc2c(c1)[C@@H]1C[C@]1(C(=O)N1[C@@H]3C[C@H]1CN(C)C3)Cn1c-2c(C2CCCCC2)c2ccc(C(=O)NS(=O)(=O)N(C)C)cc21 | 2.4 to 500 | 2.4 to 500 | – | –
5 | COc1ccc2c(c1)C1CC1(C(=O)N1CCN3CCC1CC3)Cn1c-2c(C2CCCCC2)c2ccc(C(=O)NS(=O)(=O)N3CCN(C)CC3)cc21 (stereo not drawn) | 2.4 to 500 | 2.4 to 500 | – | –
6 | CCC(C)S(=O)(=O)NC(=O)c1ccc2c(C3CCCCC3)c3n(c2c1)CC1(C(=O)N2C4COCC2COC4)CC1c1cc(OC)ccc1-3 (stereo not drawn) | 2.4 to 500 | 2.4 to 500 | – | –
7 | COc1ccc2c(c1)C1CC1(C(=O)N1C3CC1CN(C)C3)Cn1c-2c(C2CCCCC2)c2ccc(C(=O)NS(=O)(=O)CC3CC3)cc21 (stereo not drawn) | 2.4 to 500 | 2.4 to 500 | – | –
8 | COc1ccc2c(c1)C1CC1(C(=O)N1C[C@@H]3C[C@H]1CN3C)Cn1c-2c(C2CCCCC2)c2ccc(C(=O)NS(=O)(=O)N(C)C)cc21 (stereo partly drawn) | < 20 | 2.4 to 500 | – | –
9 | COc1ccc2c(c1)C1CC1(C(=O)N1C3CC1CN(C)C3)Cn1c-2c(C2CCCCC2)c2ccc(C(=O)NS(=O)(=O)C(C)C)cc21 (stereo not drawn) | 2.4 to 500 | 2.4 to 500 | – | –
10 | COc1ccc2c(c1)C1CC1(C(=O)N1CCN3CCC1CC3)Cn1c-2c(C2CCCCC2)c2ccc(C(=O)NS(=O)(=O)C(C)C)cc21 (stereo not drawn) | 2.4 to 500 | 2.4 to 500 | – | –
11 | COc1ccc2c(c1)C1CC1(C(=O)N1[C@@H]3C[C@H]1CN(C)C3)Cn1c-2c(C2CCCCC2)c2ccc(C(=O)NS(=O)(=O)N(C)C)cc21 (stereo partly drawn) | 2.4 to 500 | 2.4 to 500 | – | –
12 | COc1ccc2c(c1)C1CC1(C(=O)N1[C@@H]3C[C@H]1CN(C(=O)N(C)C)C3)Cn1c-2c(C2CCCCC2)c2ccc(C(=O)NS(=O)(=O)N(C)C)cc21 (stereo partly drawn) | 2.4 to 500 | 2.4 to 500 | – | –
13 | COc1ccc2c(c1)C1CC1(C(=O)N1C3COCC1CN(C(C)=O)C3)Cn1c-2c(C2CCCCC2)c2ccc(C(=O)NS(=O)(=O)N(C)C)cc21 (stereo not drawn) | 2.4 to 500 | 2.4 to 500 | – | –
14 | CCN(CC)S(=O)(=O)NC(=O)c1ccc2c(C3CCCCC3)c3n(c2c1)CC1(C(=O)N2C4CC2CN(C)C4)CC1c1cc(OC)ccc1-3 (stereo not drawn) | 2.4 to 500 | 2.4 to 500 | – | –
15 | COc1ccc2c(c1)C1CC1(C(=O)N1CC3COCC(C1)N3C)Cn1c-2c(C2CCCCC2)c2ccc(C(=O)NS(=O)(=O)N(C)C)cc21 (stereo not drawn) | 2.4 to 500 | 2.4 to 500 | – | –
16 | COc1ccc2c(c1)C1CC1(C(=O)N1C3CC1CN(C)C3)Cn1c-2c(C2CCCCC2)c2ccc(C(=O)NS(=O)(=O)C3CCOCC3)cc21 (stereo not drawn) | 2.4 to 500 | 2.4 to 500 | – | –
17 | COc1ccc2c(c1)C1CC1(C(=O)N1C3CC1CN(Cc1ccccc1)C3)Cn1c-2c(C2CCCCC2)c2ccc(C(=O)NS(=O)(=O)C3CC3)cc21 (stereo not drawn) | 2.4 to 500 | 2.4 to 500 | – | –
18 | COc1ccc2c(c1)C1CC1(C(=O)N1C3CN(C)CC1CN(C)C3)Cn1c-2c(C2CCCCC2)c2ccc(C(=O)NS(=O)(=O)N(C)C)cc21 (stereo not drawn) | 2.4 to 500 | 2.4 to 500 | – | –
19 | COc1ccc2c(c1)C1CC1(C(=O)N1C3CC1CN(Cc1ccccc1)C3)Cn1c-2c(C2CCCCC2)c2ccc(C(=O)NS(=O)(=O)C3CCCC3)cc21 (stereo not drawn) | 2.4 to 500 | 2.4 to 500 | – | –
20 | COc1ccc2c(c1)[C@@H]1C[C@]1(C(=O)N1C3CCC1C1CCC3N1C)Cn1c-2c(C2CCCCC2)c2ccc(C(=O)NS(=O)(=O)N(C)C)cc21 [drawing 161] | – | – | 2.4 to 500 | 2.4 to 500
21 | COc1ccc2c(c1)[C@H]1C[C@@]1(C(=O)N1CC3CC1CN3C)Cn1c-2c(C2CCCCC2)c2ccc(C(=O)NS(=O)(=O)N(C)C)cc21 (stereo partly drawn) | 2.4 to 500 | 2.4 to 500 | – | –
22 | COc1ccc2c(c1)C1CC1(C(=O)N1C3CC1CN(C)C3)Cn1c-2c(C2CCCCC2)c2ccc(C(=O)NS(=O)(=O)CC(C)(C)C)cc21 (stereo not drawn) | 2.4 to 500 | 2.4 to 500 | – | –
23 | COc1ccc2c(c1)C1CC1(C(=O)N1CC3(C)CN(C)CC(C)(C1)C3)Cn1c-2c(C2CCCCC2)c2ccc(C(=O)NS(=O)(=O)N(C)C)cc21 (stereo not drawn) | 2.4 to 500 | 2.4 to 500 | – | –
24 | CCCS(=O)(=O)NC(=O)c1ccc2c(C3CCCCC3)c3n(c2c1)CC1(C(=O)N2C4CCCC2CN(C)C4)CC1c1cc(OC)ccc1-3 (stereo not drawn) | 2.4 to 500 | 2.4 to 500 | – | –
